Measured values reported in ChEMBL document CHEMBL1129190, “Solid-phase parallel synthesis applied to lead optimization: Discovery of potent analogues of the GPIIb/IIIa antagonist RWJ-50042” (Bioorg Med Chem Lett, 1996).

Target: Integrin alpha-IIb/beta-3 (Homo sapiens, UniProt P05106+P08514)
Assay: In vitro inhibition of biotinylated fibrinogen binding to immobilized integrin alpha IIb beta3
Format: protein-complex assay

Chain of Integrin alpha-IIb/beta-3 (P05106 27-788 limits assumed): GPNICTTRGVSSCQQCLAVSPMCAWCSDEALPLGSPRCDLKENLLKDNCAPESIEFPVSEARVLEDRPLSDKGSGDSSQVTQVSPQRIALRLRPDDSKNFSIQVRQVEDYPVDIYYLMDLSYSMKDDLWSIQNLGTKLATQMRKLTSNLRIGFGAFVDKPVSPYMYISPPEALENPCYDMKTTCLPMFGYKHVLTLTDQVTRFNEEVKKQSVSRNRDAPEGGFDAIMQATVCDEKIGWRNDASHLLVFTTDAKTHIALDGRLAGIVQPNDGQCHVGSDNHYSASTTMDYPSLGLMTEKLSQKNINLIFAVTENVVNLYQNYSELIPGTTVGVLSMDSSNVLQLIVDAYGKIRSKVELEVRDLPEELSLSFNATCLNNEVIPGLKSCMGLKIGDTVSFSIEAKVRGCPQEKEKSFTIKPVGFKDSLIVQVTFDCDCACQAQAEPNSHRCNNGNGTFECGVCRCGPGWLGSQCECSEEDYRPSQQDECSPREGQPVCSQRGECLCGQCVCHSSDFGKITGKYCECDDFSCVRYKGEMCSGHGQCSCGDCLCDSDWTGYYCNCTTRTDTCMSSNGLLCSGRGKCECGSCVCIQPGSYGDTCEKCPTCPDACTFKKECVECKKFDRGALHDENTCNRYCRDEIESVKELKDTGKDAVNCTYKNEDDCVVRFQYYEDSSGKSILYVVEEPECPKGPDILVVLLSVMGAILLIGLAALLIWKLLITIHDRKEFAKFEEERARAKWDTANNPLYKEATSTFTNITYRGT
Chain of Integrin alpha-IIb/beta-3 (P08514 32-887 limits assumed): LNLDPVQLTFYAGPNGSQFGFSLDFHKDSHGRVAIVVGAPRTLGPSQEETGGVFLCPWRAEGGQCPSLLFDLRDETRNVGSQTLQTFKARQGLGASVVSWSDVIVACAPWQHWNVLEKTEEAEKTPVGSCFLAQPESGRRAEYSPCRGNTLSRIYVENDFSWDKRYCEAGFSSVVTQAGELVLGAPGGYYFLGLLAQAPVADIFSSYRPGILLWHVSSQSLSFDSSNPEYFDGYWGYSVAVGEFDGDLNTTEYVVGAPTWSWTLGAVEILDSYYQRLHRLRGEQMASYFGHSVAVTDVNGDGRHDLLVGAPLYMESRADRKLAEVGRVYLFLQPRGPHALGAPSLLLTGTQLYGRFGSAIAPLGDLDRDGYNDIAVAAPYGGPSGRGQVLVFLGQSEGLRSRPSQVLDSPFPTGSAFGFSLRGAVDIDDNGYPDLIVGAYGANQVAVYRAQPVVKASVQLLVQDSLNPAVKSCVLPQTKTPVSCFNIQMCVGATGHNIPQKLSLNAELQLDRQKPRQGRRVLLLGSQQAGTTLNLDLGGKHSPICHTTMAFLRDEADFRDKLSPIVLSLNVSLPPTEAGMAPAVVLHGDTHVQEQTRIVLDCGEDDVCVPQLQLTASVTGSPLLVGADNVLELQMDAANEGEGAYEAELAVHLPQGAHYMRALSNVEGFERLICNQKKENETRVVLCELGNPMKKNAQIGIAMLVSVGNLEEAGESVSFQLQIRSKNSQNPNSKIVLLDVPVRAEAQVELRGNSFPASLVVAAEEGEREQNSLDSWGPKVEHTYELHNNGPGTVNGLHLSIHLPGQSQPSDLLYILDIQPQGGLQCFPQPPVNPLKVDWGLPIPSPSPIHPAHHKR
Chain of Integrin alpha-IIb/beta-3 (P08514 891-1039 limits assumed): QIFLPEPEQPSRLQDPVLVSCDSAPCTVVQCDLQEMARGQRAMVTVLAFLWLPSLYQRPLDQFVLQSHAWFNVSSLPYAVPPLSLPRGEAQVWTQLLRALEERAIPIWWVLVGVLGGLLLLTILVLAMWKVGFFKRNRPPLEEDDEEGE

| Structure (SMILES) | IC50 |
| --- | --- |
| O=C(O)CCNC(=O)C1CCCN(C(=O)CCC2CCNCC2)C1 (centres undefined) | 6 nM |
| O=C(O)CCNC(=O)C1CCN(C(=O)CCC2CCNCC2)CC1 | > 100 nM |
| O=C(O)C[C@@H](C#Cc1ccccc1)NC(=O)[C@@H]1CCCN(C(=O)CCC2CCNCC2)C1 | 3 nM |
| COC(=O)C(CC(=O)O)NC(=O)C1CCCN(C(=O)CCC2CCNCC2)C1 (centres undefined) | 3 nM |
| O=C(O)C1CCCC(NC(=O)C2CCCN(C(=O)CCC3CCNCC3)C2)C1 (centres undefined) | > 50000 nM |
| O=C(NCCS(=O)(=O)O)C1CCCN(C(=O)CCC2CCNCC2)C1 (centres undefined) | 200 nM |
| CC(CC(=O)O)NC(=O)C1CCCN(C(=O)CCC2CCNCC2)C1 (centres undefined) | 3 nM |
| O=C(O)C1CN(C(=O)C2CCCN(C(=O)CCC3CCNCC3)C2)CCC1=O (centres undefined) | 9 nM |
| CC(C)(C)C#C[C@H](CC(=O)O)NC(=O)[C@@H]1CCCN(C(=O)CCC2CCNCC2)C1 | 21 nM |
| O=C(O)CCNC(=O)C1CCCCN(C(=O)CCC2CCNCC2)C1 (centres undefined) | 10 nM |
| O=C(O)CCNC(=O)C1CCCN(C(=O)NCC2CCNCC2)C1 (centres undefined) | 20 nM |
| O=C(O)C(O)CNC(=O)C1CCCN(C(=O)CCC2CCNCC2)C1 (centres undefined) | 5 nM |
| O=C(O)CCNC(=O)C1CCCN(C(=O)OCC2CCNCC2)C1 (centres undefined) | 20 nM |
| O=C(O)CCNC(=O)C1CCCN(C(=O)CCN2CCNCC2)C1 (centres undefined) | 2 nM |
| O=C(O)CCNC(=O)C1CCCN(S(=O)(=O)CCC2CCNCC2)C1 (centres undefined) | 20 nM |
| O=C(O)C[C@H](NC(=O)[C@@H]1CCCN(C(=O)CCC2CCNCC2)C1)c1cccs1 | 0.1 nM |
| CN(CCC(=O)O)C(=O)C1CCCN(C(=O)CCC2CCNCC2)C1 (centres undefined) | 200 nM |
| CC(CNC(=O)C1CCCN(C(=O)CCC2CCNCC2)C1)C(=O)O (centres undefined) | > 100 nM |
| CC(C)CC(CC(=O)O)NC(=O)C1CCCN(C(=O)CCC2CCNCC2)C1 (centres undefined) | 2 nM |
| O=C(O)CCNC(=O)[C@H]1CCCN(C(=O)CCC2CCNCC2)C1 | 4 nM |
| O=C(O)C[C@H](NC(=O)[C@@H]1CCCN(C(=O)CCC2CCNCC2)C1)c1cnc2ccccc2c1 | 0.1 nM |
| O=C(O)CCNC(=O)[C@@H]1CCCN(C(=O)CCC2CCNCC2)C1 | 6 nM |
| O=C(NCCc1nnn[nH]1)C1CCCN(C(=O)CCC2CCNCC2)C1 (centres undefined) | 600 nM |
| O=C(O)CCNC(=O)C1CCN(C(=O)CCC2CCNCC2)C1 (centres undefined) | 7 nM |
